Experimental data taken from PubChem BioAssay (NCI).
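Assay format: 96-well plates, 48-hour exposure. TGI: total growth inhibition.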

How the values were obtained:
Assay in all cases: NCI-60 cell line screen, 48 h
U251 CNS = tested on: U251 CNS
KM20L2 colon = tested on: KM20L2 colon
NCI-H522 lung = tested on: NCI-H522 lung
HCT-116 colon = tested on: HCT-116 colon
SNB-78 CNS = tested on: SNB-78 CNS
SF-268 CNS = tested on: SF-268 CNS
KM12 colon = tested on: KM12 colon
A549 NSCLC = tested on: A549 NSCLC
MOLT-4 leukemia = tested on: MOLT-4 leukemia
A498 renal = tested on: A498 renal
SF-539 CNS = tested on: SF-539 CNS
SF-295 CNS = tested on: SF-295 CNS
HL-60(TB) leukemia = tested on: HL-60(TB) leukemia
EKVX NSCLC = tested on: EKVX NSCLC
SK-MEL-5 melanoma = tested on: SK-MEL-5 melanoma
UACC-257 melanoma = tested on: UACC-257 melanoma
NCI-H460 lung = tested on: NCI-H460 lung
M14 melanoma = tested on: M14 melanoma
SK-MEL-28 melanoma = tested on: SK-MEL-28 melanoma
HOP-92 NSCLC = tested on: HOP-92 NSCLC
OVCAR-4 ovarian = tested on: OVCAR-4 ovarian
UACC-62 melanoma = tested on: UACC-62 melanoma
SK-MEL-2 melanoma = tested on: SK-MEL-2 melanoma
RPMI-8226 leukemia = tested on: RPMI-8226 leukemia
LOX IMVI melanoma = tested on: LOX IMVI melanoma
IGROV1 ovarian = tested on: IGROV1 ovarian
OVCAR-8 ovarian = tested on: OVCAR-8 ovarian
SK-OV-3 ovarian = tested on: SK-OV-3 ovarian
TK-10 renal = tested on: TK-10 renal
SR leukemia = tested on: SR leukemia
CAKI-1 renal = tested on: CAKI-1 renal
HCC-2998 colon = tested on: HCC-2998 colon
DMS 273 small cell lung = tested on: DMS 273 small cell lung
UO-31 renal = tested on: UO-31 renal
M19-MEL melanoma = tested on: M19-MEL melanoma
K-562 leukemia = tested on: K-562 leukemia
HCT-15 colon = tested on: HCT-15 colon
SNB-19 CNS = tested on: SNB-19 CNS
HOP-62 NSCLC = tested on: HOP-62 NSCLC
OVCAR-3 ovarian = tested on: OVCAR-3 ovarian
COLO 205 colon = tested on: COLO 205 colon
HT29 colon = tested on: HT29 colon
SN12C renal = tested on: SN12C renal
CCRF-CEM leukemia = tested on: CCRF-CEM leukemia
LXFL 529 NSCLC = tested on: LXFL 529 NSCLC
RXF 393 renal = tested on: RXF 393 renal
SW-620 colon = tested on: SW-620 colon
ACHN renal = tested on: ACHN renal
MALME-3M melanoma = tested on: MALME-3M melanoma
SNB-75 CNS = tested on: SNB-75 CNS
786-0 renal = tested on: 786-0 renal
NCI-H23 lung = tested on: NCI-H23 lung
NCI/ADR-RES ovarian = tested on: NCI/ADR-RES ovarian
MDA-N = tested on: MDA-N
NCI-H226 lung = tested on: NCI-H226 lung
MDA-MB-435 = tested on: MDA-MB-435
T-47D breast = tested on: T-47D breast
OVCAR-5 ovarian = tested on: OVCAR-5 ovarian
HS 578T breast = tested on: HS 578T breast
PC-3 prostate = tested on: PC-3 prostate
MCF7 breast = tested on: MCF7 breast
MDA-MB-231 breast = tested on: MDA-MB-231 breast
DU-145 prostate = tested on: DU-145 prostate
BT-549 breast = tested on: BT-549 breast

`CCCCCCCCCCCC(=O)OCC1OC(n2cc(F)c(=O)[nH]c2=O)C(NC(=O)OCc2ccccc2)C(O)C1O` (centres undefined) gave a TGI (U251 CNS) of 38.9 µM, a TGI (KM20L2 colon) of 42.3 µM and a TGI (NCI-H522 lung) of 30.8 µM. For the same compound, the TGI (HCT-116 colon) was 30.3 µM, the TGI (SNB-78 CNS) was 87.7 µM and the TGI (SF-268 CNS) was over 100 µM. The TGI (KM12 colon) was 42.9 µM, the TGI (A549 NSCLC) was 43.2 µM and the TGI (MOLT-4 leukemia) was 53.4 µM. It also gave a TGI (A498 renal) of 51.4 µM, a TGI (SF-539 CNS) of 49.4 µM and a TGI (SF-295 CNS) of 63.9 µM. It also gave a TGI (HL-60(TB) leukemia) of 49.7 µM, a TGI (EKVX NSCLC) of 79.9 µM and a TGI (SK-MEL-5 melanoma) of 34.6 µM. For the same compound, the TGI (UACC-257 melanoma) was 50.8 µM, the TGI (NCI-H460 lung) was 34.3 µM and the TGI (M14 melanoma) was 36.2 µM. The TGI (SK-MEL-28 melanoma) was 35.4 µM, the TGI (HOP-92 NSCLC) was 40.7 µM and the TGI (OVCAR-4 ovarian) was 63.9 µM. The TGI (UACC-62 melanoma) was 38.6 µM, the TGI (SK-MEL-2 melanoma) was 42.5 µM and the TGI (RPMI-8226 leukemia) was 53.5 µM. For the same compound, the TGI (LOX IMVI melanoma) was 32.4 µM, the TGI (IGROV1 ovarian) was over 100 µM and the TGI (OVCAR-8 ovarian) was 43.7 µM. For the same compound, the TGI (SK-OV-3 ovarian) was over 100 µM, the TGI (TK-10 renal) was over 100 µM and the TGI (SR leukemia) was 41.2 µM. It also gave a TGI (CAKI-1 renal) of over 100 µM, a TGI (HCC-2998 colon) of 32.9 µM and a TGI (DMS 273 small cell lung) of 36.2 µM. For the same compound, the TGI (UO-31 renal) was 93 µM, the TGI (M19-MEL melanoma) was 37.2 µM and the TGI (K-562 leukemia) was 52.3 µM. For the same compound, the TGI (HCT-15 colon) was 43.5 µM, the TGI (SNB-19 CNS) was 75.5 µM and the TGI (HOP-62 NSCLC) was over 100 µM. It also gave a TGI (OVCAR-3 ovarian) of 68.4 µM, a TGI (COLO 205 colon) of 39.7 µM and a TGI (HT29 colon) of 29.8 µM. The TGI (SN12C renal) was 34.7 µM, the TGI (CCRF-CEM leukemia) was 41.7 µM and the TGI (LXFL 529 NSCLC) was 34.3 µM. For the same compound, the TGI (RXF 393 renal) was 73.6 µM, the TGI (SW-620 colon) was 41.5 µM and the TGI (ACHN renal) was over 100 µM. It also gave a TGI (MALME-3M melanoma) of 47.9 µM, a TGI (SNB-75 CNS) of 28.1 µM and a TGI (786-0 renal) of 50.9 µM. It also gave a TGI (NCI-H23 lung) of 93.6 µM.

`CCc1nnc(-n2c(C)nc3cc(Cl)ccc3c2=O)s1` was tested, and the TGI (U251 CNS) was over 100 µM, the TGI (NCI-H522 lung) was 75.4 µM and the TGI (HCT-116 colon) was over 100 µM. For the same compound, the TGI (SF-268 CNS) was over 100 µM, the TGI (KM12 colon) was over 100 µM and the TGI (A549 NSCLC) was over 100 µM. For the same compound, the TGI (MOLT-4 leukemia) was over 100 µM, the TGI (NCI/ADR-RES ovarian) was over 100 µM and the TGI (A498 renal) was over 100 µM. It also gave a TGI (SF-295 CNS) of over 100 µM, a TGI (HL-60(TB) leukemia) of over 100 µM and a TGI (EKVX NSCLC) of over 100 µM. For the same compound, the TGI (SK-MEL-5 melanoma) was 65.9 µM, the TGI (UACC-257 melanoma) was over 100 µM and the TGI (MDA-N) was 49.1 µM. The TGI (NCI-H460 lung) was over 100 µM, the TGI (M14 melanoma) was over 100 µM and the TGI (SK-MEL-28 melanoma) was over 100 µM. It also gave a TGI (HOP-92 NSCLC) of 99.2 µM, a TGI (OVCAR-4 ovarian) of over 100 µM and a TGI (UACC-62 melanoma) of 61.7 µM. The TGI (LOX IMVI melanoma) was over 100 µM, the TGI (NCI-H226 lung) was over 100 µM and the TGI (IGROV1 ovarian) was over 100 µM. It also gave a TGI (MDA-MB-435) of over 100 µM, a TGI (T-47D breast) of over 100 µM and a TGI (OVCAR-8 ovarian) of over 100 µM. It also gave a TGI (OVCAR-5 ovarian) of over 100 µM, a TGI (SK-OV-3 ovarian) of over 100 µM and a TGI (TK-10 renal) of over 100 µM. For the same compound, the TGI (SR leukemia) was over 100 µM, the TGI (CAKI-1 renal) was over 100 µM and the TGI (HS 578T breast) was over 100 µM. It also gave a TGI (PC-3 prostate) of over 100 µM, a TGI (HCC-2998 colon) of over 100 µM and a TGI (UO-31 renal) of over 100 µM. It also gave a TGI (K-562 leukemia) of over 100 µM, a TGI (HCT-15 colon) of over 100 µM and a TGI (SNB-19 CNS) of over 100 µM. It also gave a TGI (HOP-62 NSCLC) of over 100 µM, a TGI (MCF7 breast) of over 100 µM and a TGI (MDA-MB-231 breast) of over 100 µM. For the same compound, the TGI (OVCAR-3 ovarian) was 43 µM, the TGI (COLO 205 colon) was over 100 µM and the TGI (HT29 colon) was over 100 µM. The TGI (SN12C renal) was over 100 µM, the TGI (CCRF-CEM leukemia) was 56.7 µM and the TGI (RXF 393 renal) was over 100 µM. For the same compound, the TGI (DU-145 prostate) was over 100 µM, the TGI (SW-620 colon) was over 100 µM and the TGI (ACHN renal) was over 100 µM. The TGI (BT-549 breast) was over 100 µM, the TGI (MALME-3M melanoma) was 93.1 µM and the TGI (SNB-75 CNS) was 92.8 µM. It also gave a TGI (786-0 renal) of 81.6 µM and a TGI (NCI-H23 lung) of over 100 µM.

Work on `CCOC(=O)c1nc2c3c(ncn2n1)Oc1c(c(-c2ccccc2)nn1-c1ccccc1)C3c1ccc(Cl)cc1` (centres undefined) yielded a TGI (U251 CNS) of over 100 µM, a TGI (NCI-H522 lung) of over 100 µM and a TGI (HCT-116 colon) of over 100 µM. It also gave a TGI (SF-268 CNS) of over 100 µM, a TGI (KM12 colon) of over 100 µM and a TGI (A549 NSCLC) of over 100 µM. The TGI (NCI/ADR-RES ovarian) was over 100 µM, the TGI (A498 renal) was over 100 µM and the TGI (SF-539 CNS) was over 100 µM. For the same compound, the TGI (SF-295 CNS) was over 100 µM, the TGI (HL-60(TB) leukemia) was over 100 µM and the TGI (SK-MEL-5 melanoma) was over 100 µM. The TGI (UACC-257 melanoma) was over 100 µM, the TGI (MDA-N) was over 100 µM and the TGI (NCI-H460 lung) was over 100 µM. For the same compound, the TGI (M14 melanoma) was over 100 µM, the TGI (SK-MEL-28 melanoma) was over 100 µM and the TGI (HOP-92 NSCLC) was over 100 µM. It also gave a TGI (OVCAR-4 ovarian) of over 100 µM, a TGI (UACC-62 melanoma) of over 100 µM and a TGI (SK-MEL-2 melanoma) of over 100 µM. The TGI (RPMI-8226 leukemia) was over 100 µM, the TGI (LOX IMVI melanoma) was over 100 µM and the TGI (NCI-H226 lung) was over 100 µM. The TGI (MDA-MB-435) was over 100 µM, the TGI (T-47D breast) was over 100 µM and the TGI (OVCAR-8 ovarian) was over 100 µM. For the same compound, the TGI (OVCAR-5 ovarian) was over 100 µM, the TGI (SK-OV-3 ovarian) was over 100 µM and the TGI (TK-10 renal) was over 100 µM. The TGI (SR leukemia) was over 100 µM, the TGI (CAKI-1 renal) was over 100 µM and the TGI (HS 578T breast) was over 100 µM. The TGI (PC-3 prostate) was over 100 µM, the TGI (HCC-2998 colon) was over 100 µM and the TGI (UO-31 renal) was over 100 µM. It also gave a TGI (K-562 leukemia) of over 100 µM, a TGI (HCT-15 colon) of over 100 µM and a TGI (SNB-19 CNS) of over 100 µM. For the same compound, the TGI (HOP-62 NSCLC) was over 100 µM, the TGI (MCF7 breast) was over 100 µM and the TGI (MDA-MB-231 breast) was over 100 µM. It also gave a TGI (OVCAR-3 ovarian) of over 100 µM, a TGI (COLO 205 colon) of over 100 µM and a TGI (HT29 colon) of over 100 µM. It also gave a TGI (SN12C renal) of over 100 µM, a TGI (CCRF-CEM leukemia) of over 100 µM and a TGI (RXF 393 renal) of over 100 µM. For the same compound, the TGI (DU-145 prostate) was over 100 µM, the TGI (SW-620 colon) was over 100 µM and the TGI (ACHN renal) was over 100 µM. It also gave a TGI (BT-549 breast) of over 100 µM, a TGI (MALME-3M melanoma) of over 100 µM and a TGI (SNB-75 CNS) of over 100 µM. For the same compound, the TGI (786-0 renal) was over 100 µM and the TGI (NCI-H23 lung) was over 100 µM.
